# Where a name gives a salt, the structure may show the parent alone. Read-outs that look alike come from different tables or passages of the source.
# How the values were obtained:
# rNHE3 = rNHE3 (Rattus norvegicus, UniProt P26433); assay: recovery of intracellular pH (pHi) after acidification, BCECF fluorescence; type: cell-based
# Protocol: In this test, the recovery of the intracellular pH (pHi) after an acidification, which starts when the NHE is capable of functioning, even under bicarbonate-free conditions, was determined. For this purpose, the pHi was determined using the pH-sensitive fluorescent dye BCECF (calbiochem, the precursor BCECF-AM is employed). The cells were initially loaded with BCECF. The BCECF fluorescence was determined in a “ratio fluorescence spectrometer” (Photon Technology International, South Brunswick, N.J., USA) with excitation wavelengths of 505 and 440 nm and an emission wavelength of 535 nm, and was converted into the pHi using calibration plots. The cells were incubated in NH4Cl buffer (pH 7.4) (NH4Cl buffer: 115 mM NaCl, 20 mM NH4Cl, 5 mM KCl, 1 mM CaCl2, 1 mM MgSO4, 20 mM Hepes, 5 mM glucose, 1 mg/ml BSA; a pH of 7.4 is established with 1 M NaOH) even during the BCECF loading. The intracellular acidification was induced by addition of 975 μl of an NH4Cl-free buffer (see below) to 25 μl aliquots of the cells incubated in NH4Cl buffer. The subsequent rate of pH recovery was recorded in the case of NHE1 for two minutes, in the case of NHE2 for five minutes and in the case of NHE3 for three minutes. To calculate the inhibitory power of the tested substances, the cells were initially investigated in buffers in which complete or absolutely no pH recovery took place. For complete pH recovery (100%), the cells were incubated in Na^+-containing buffer (133.8 mM NaCl, 4.7 mM KCl, 1.25 mM CaCl2, 1.25 mM MgCl2, 0.97 mM Na2HPO4, 0.23 mM NaH2PO4, 5 mM Hepes, 5 mM glucose, a pH of 7.0 is established with 1 M NaOH). […] Recovery of the intracellular pH at the tested concentration of a substance was expressed as a percentage of the maximum recovery. Using the Sigma-Plot program, the IC50 value of the substance in question was calculated for the individual NHE subtypes using the percentages for pH recovery.
# [1] = tested on: adrenergic alpha2 receptor; conditions: cited from earlier work
# imidazoline I1 receptor = conditions: cited from earlier work
# NHE3 = NHE3 (Oryctolagus cuniculus, UniProt P26432); conditions: cited from earlier work
# [2] = pH recovery recorded for three minutes, read-out: IC50 [μM], (rNHE3)
# rNHE3, sequence (P26433 29-831): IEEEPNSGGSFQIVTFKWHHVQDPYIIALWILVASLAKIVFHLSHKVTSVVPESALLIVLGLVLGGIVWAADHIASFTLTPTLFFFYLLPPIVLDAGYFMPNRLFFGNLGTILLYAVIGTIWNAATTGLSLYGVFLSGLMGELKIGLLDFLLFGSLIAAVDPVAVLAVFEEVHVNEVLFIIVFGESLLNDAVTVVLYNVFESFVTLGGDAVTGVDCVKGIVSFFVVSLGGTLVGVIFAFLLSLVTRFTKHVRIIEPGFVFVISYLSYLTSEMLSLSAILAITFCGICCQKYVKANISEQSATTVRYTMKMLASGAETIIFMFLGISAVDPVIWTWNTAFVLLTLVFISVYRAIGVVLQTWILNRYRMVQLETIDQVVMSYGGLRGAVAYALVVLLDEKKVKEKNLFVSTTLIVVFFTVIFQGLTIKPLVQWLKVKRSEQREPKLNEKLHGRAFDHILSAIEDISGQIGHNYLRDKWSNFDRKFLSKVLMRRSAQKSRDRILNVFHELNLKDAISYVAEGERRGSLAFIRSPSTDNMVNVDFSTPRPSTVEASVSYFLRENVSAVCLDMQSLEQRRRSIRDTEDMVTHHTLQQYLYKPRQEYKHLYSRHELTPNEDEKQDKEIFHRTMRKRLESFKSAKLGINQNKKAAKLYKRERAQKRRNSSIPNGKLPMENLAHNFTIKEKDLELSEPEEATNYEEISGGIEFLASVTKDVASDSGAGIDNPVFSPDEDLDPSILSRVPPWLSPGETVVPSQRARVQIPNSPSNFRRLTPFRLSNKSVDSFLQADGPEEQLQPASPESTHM
# NHE3, sequence (P26432 30-832): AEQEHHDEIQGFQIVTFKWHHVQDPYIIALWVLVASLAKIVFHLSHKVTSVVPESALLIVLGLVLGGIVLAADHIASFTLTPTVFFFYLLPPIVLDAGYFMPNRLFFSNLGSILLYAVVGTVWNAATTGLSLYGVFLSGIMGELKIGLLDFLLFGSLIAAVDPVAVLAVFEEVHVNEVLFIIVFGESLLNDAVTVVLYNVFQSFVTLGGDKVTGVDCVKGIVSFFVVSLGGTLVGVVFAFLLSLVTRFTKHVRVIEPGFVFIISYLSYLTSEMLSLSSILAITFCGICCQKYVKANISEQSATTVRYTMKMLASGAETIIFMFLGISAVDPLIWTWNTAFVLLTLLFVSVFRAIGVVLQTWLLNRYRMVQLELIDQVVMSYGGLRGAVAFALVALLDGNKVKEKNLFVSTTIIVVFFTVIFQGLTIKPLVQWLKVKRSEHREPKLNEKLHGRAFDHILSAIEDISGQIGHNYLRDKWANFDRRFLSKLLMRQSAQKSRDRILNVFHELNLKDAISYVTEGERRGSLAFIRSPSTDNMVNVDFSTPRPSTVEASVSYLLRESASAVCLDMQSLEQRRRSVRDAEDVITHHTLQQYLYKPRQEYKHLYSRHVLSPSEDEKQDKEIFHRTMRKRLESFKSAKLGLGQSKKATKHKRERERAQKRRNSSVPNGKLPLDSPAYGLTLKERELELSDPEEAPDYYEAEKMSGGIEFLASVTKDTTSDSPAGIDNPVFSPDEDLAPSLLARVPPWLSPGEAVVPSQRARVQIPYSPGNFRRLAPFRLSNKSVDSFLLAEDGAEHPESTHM
Compound,melting point [°C],IC50 (rNHE3; [2]) [µM],also measured
Cl.c1ccc(Oc2ccccc2N=C2N[C@@H]3CCCC[C@H]3N2)cc1,110,–,–
"CC(C)[C@@H]1NC(=Nc2c(Cl)cccc2Cl)N[C@H]1C(C)C (racemic) [Example 7, trans-(2,6-Dichlorophenyl)-(4,5-diisopropylimidazolidin-2-ylidene)amine hydrochloride]",–,1.1,–
"Cl.FC(F)(F)c1cccc(Cl)c1N=C1N[C@H]2CCCC[C@@H]2N1 (relative stereo) [Example 5, trans-(2-Chloro-6-trifluoromethylphenyl)-(octahydrobenzimidazol-2-ylidene)amine hydrochloride]",160 to 165,19,–
Clc1cccc(Cl)c1N=C1NCCN1 [Clonidine],–,–,affinity for the adrenergic alpha2 receptor [1]: high affinity; affinity for the imidazoline I1 receptor (imidazoline I1 receptor): high affinity
"CC1NC(=Nc2c(Cl)cccc2Cl)NC1C (centres unmarked) [Example 12, (2,6-dichlorophenyl)-(4,5-dimethylimidazolidin-2-ylidene)amine nitric acid salt]",–,–,IC50 (rNHE3): ~3 µM
CC(C)[C@@H](CC[C@@H](C)[C@H]1CC[C@H]2[C@@H]3[C@H](O)C[C@H]4C[C@@H](NCCCNCCCCN)CC[C@]4(C)[C@H]3CC[C@]12C)OS(=O)(=O)O [Squalamine],–,–,time to maximum potency as NHE3 inhibitor (NHE3): reaches its maximum potency only after one hour
